Measurements from US20240398694A1, “SKINCARE COMPOSITION CONTAINING SHATAVARI EXTRACT” (Bangkok Lab and Cosmetic Public Company Limited, priority 2023, published 2024).
Several values for one entry are separate records, joined by “and”; a condition that tells them apart may be missing. Equal entries are not always repeated. Where two headings read alike, the source gives them in different places.

How the values were obtained:
[1] = tested on: breast cancer cells MCF7; assay: Estrogen hormone stimulation activity: % survival of breast cancer cells MCF7; assay type: cell-based, human
From the text: Breast cancer cells are the representatives of the study of estrogen receptor stimulation activity because breast cancer cells are responsible for estrogen hormone.

[2] = tested on: prostate cancer cells DU-145; conditions: human
From the text: (§1) Prostate cancer cells are the representatives of the study of 5α-reductase inhibition activity due to the production of 5α-reductase in prostate cancer cells.

[3] = tested on: 5α-reductase; assay: 5α-reductase inhibition activity in prostate cancer cells DU-145; assay type: cell-based, human; conditions: FIG. 5, lanes 3 and 4 vs control lane 2
From the text: as §1

[4] = Free-radical DPPH binding study
From the text: From the free-radical DPPH binding study, Shatavari extract has an SC50 of 5.92+0.03 milligrams per milliliter. […] Also, the free-radical DPPH binding activity of non-diluted Shatavari extract is 91.15+0.97%.
(§2) These are used in free-radical binding studies by the DPPH method and in free-radical nitric oxide binding using Griess reagent.

[5] = Free-radical nitric oxide binding using Griess reagent; conditions: triplicate
From the text: as §2

[6] = applying 10% vitamin C; cited from earlier work

In the case of `C[C@]12CC[C@@H]3c4ccc(O)cc4CC[C@H]3[C@@H]1CC[C@@H]2O` [β-estradiol], the “% survival of breast cancer cells MCF7 (means ± S.D.)” value ([1]; concentration 0.1 μg/mL) is reported as 92.14%, the “% survival of breast cancer cells MCF7 (means ± S.D.)” value ([1]; concentration 1 μg/mL) is reported as 101.82% and the “% survival of breast cancer cells MCF7 (means ± S.D.)” value ([1]; concentration 10 μg/mL) is reported as 98.84%. The “% survival of breast cancer cells MCF7 (means ± S.D.)” value ([1]; concentration 100 μg/mL) was 96.53% and the “% survival of breast cancer cells MCF7 (means ± S.D.)” value ([1]; concentration 1,000 μg/mL) was 107.2% and 107.20 ± 5.37%.
In the case of `CC(C)(C)NC(=O)[C@H]1CC[C@H]2[C@@H]3CC[C@H]4NC(=O)C=C[C@]4(C)[C@H]3CC[C@]12C` [finasteride], the “highest concentration non-cytotoxic to prostate cancer cells DU-145” value [2] is reported as 10 micrograms per milliliter, the “% Survival of prostate cancer cells DU-145 (means ± S.D.)” value ([2]; 0.01 μg/mL) is reported as 100.19% and the “% Survival of prostate cancer cells DU-145 (means ± S.D.)” value ([2]; 0.1 μg/mL) is reported as 99.75%. The “% Survival of prostate cancer cells DU-145 (means ± S.D.)” value ([2]; 1 μg/mL) was 94.89%, the “% Survival of prostate cancer cells DU-145 (means ± S.D.)” value ([2]; 100 μg/mL) was 0% and the “agarose gel band of 5α-reductase DNA (700-bp fragment) from treated DU-145 cells” value [3] was “faded”.
In the case of `O=C1O[C@H]([C@@H](O)CO)C(O)=C1O` [vitamin C, L-ascorbic acid], the “SC50 (IC50) of free-radical DPPH binding” value [4] is listed as 0.02 ± 0.01 milligrams per milliliter, the “IC50 of free-radical nitric oxide binding” value [5] is listed as 0.84 ± 0.02 milligrams per milliliter and the reduction of sunburn [6] is listed as 40-60%. For the same compound, the “reduction of the skin's redness from UVB exposure” value [6] was 52%.
